Laboratory results reported in ChEMBL document CHEMBL5385890, “A JAK tyrosine kinase and pseudokinase Co-inhibition strategy combines enhanced potency and on-demand activation” (Eur J Med Chem, 2023).
The source made the active and inactive calls. No cut-off for these calls is given here.

Columns and labels:
[1] = Cytotoxicity against HUVEC cells assessed as inhibition of cell growth; type: toxicity, cell-based; conditions: human
[2] = Cytotoxicity against HUVEC cells assessed as inhibition of cell growth incubated in presence of 3-cyclopropyl-1-(3-{5-[(morpholin-4-yl)methyl]-1H-1,3-benzodiazol-2-yl}-1H-pyrazol-4-yl)urea; type: toxicity, cell-based; conditions: human
HEL [3] = assay: Cytotoxicity against HEL cells assessed as inhibition of cell growth irradiated with 450 nm light and incubated in presence of 3-cyclopropyl-1-(3-{5-[(morpholin-4-yl)methyl]-1H-1,3-benzodiazol-2-yl}-1H-pyrazol-4-yl)urea; type: functional, cell-based; conditions: Homo sapiens, light or radiation study
HEL [4] = assay: Cytotoxicity against HEL cells assessed as inhibition of cell growth incubated under dark condition in presence of 3-cyclopropyl-1-(3-{5-[(morpholin-4-yl)methyl]-1H-1,3-benzodiazol-2-yl}-1H-pyrazol-4-yl)urea; type: functional, cell-based; conditions: Homo sapiens
HEL [5] = assay: Cytotoxicity against HEL cells assessed as inhibition of cell growth incubated under hypoxic condition in presence of 3-cyclopropyl-1-(3-{5-[(morpholin-4-yl)methyl]-1H-1,3-benzodiazol-2-yl}-1H-pyrazol-4-yl)urea; type: functional, cell-based; conditions: Homo sapiens
HEL [6] = assay: Antitumor activity against HEL cells xenografted in Balb/c nude mouse assessed as tumor growth inhibition at 32.5 mg/kg, ip administered once daily for 14 consecutive days relative to control; type: functional, Homo sapiens; conditions: 336 h, time 14 day, read-out: TGI
HEL [7] = assay: Antitumor activity against HEL cells xenografted in Balb/c nude mouse assessed as tumor growth inhibition at 32.5 mg/kg, ip administered once daily for 14 consecutive days in presence of 3-cyclopropyl-1-(3-{5-[(morpholin-4-yl)methyl]-1H-1,3-benzodiazol-2-yl}-1H-pyrazol-4-yl)urea relative to control; type: functional, Homo sapiens; conditions: 336 h, time 14 day, read-out: TGI
HEL [8] = assay: Antitumor activity against HEL cells xenografted in Balb/c nude mouse assessed as induction of apoptosis in tumor at 32.5 mg/kg, ip administered once daily for 14 consecutive days in presence of 3-cyclopropyl-1-(3-{5-[(morpholin-4-yl)methyl]-1H-1,3-benzodiazol-2-yl}-1H-pyrazol-4-yl)urea by TUNEL assay relative to control; type: functional, organism-based; conditions: Homo sapiens, time 14.0 day
BaF3 = assay: Cytotoxicity against mouse BaF3 cells harboring EPOR JAK2 V617F mutant; type: functional, cell-based
HEL [9] = assay: Cytotoxicity against HEL cells assessed as inhibition of cell growth; type: functional, cell-based; conditions: Homo sapiens
HEL [10] = assay: Cytotoxicity against HEL cells assessed as inhibition of cell growth incubated in presence of 3-cyclopropyl-1-(3-{5-[(morpholin-4-yl)methyl]-1H-1,3-benzodiazol-2-yl}-1H-pyrazol-4-yl)urea; type: functional, cell-based; conditions: Homo sapiens
HEL [11] = assay: Cytotoxicity against HEL cells assessed as inhibition of cell growth incubated in presence of decernotinib; type: functional, cell-based; conditions: Homo sapiens
HEL [12] = assay: Cytotoxicity against HEL cells assessed as inhibition of cell growth incubated in presence of tofacitinib; type: functional, cell-based; conditions: Homo sapiens
HEL [13] = assay: Cytotoxicity against HEL cells assessed as inhibition of cell growth incubated in presence of ruxolitinib; type: functional, cell-based; conditions: Homo sapiens
HEL [14] = assay: Synergistic cytotoxicity against HEL cells assessed as combination index for 25% activity in presence of 3-cyclopropyl-1-(3-{5-[(morpholin-4-yl)methyl]-1H-1,3-benzodiazol-2-yl}-1H-pyrazol-4-yl)urea; type: functional, Homo sapiens
HEL [15] = assay: Synergistic cytotoxicity against HEL cells assessed as combination index for 25% activity in presence of decernotinib; type: functional, Homo sapiens
HEL [16] = assay: Synergistic cytotoxicity against HEL cells assessed as combination index for 25% activity in presence of tofacitinib; type: functional, Homo sapiens
HEL [17] = assay: Synergistic cytotoxicity against HEL cells assessed as combination index for 25% activity in presence of ruxolitinib; type: functional, Homo sapiens
HEL [18] = assay: Synergistic cytotoxicity against HEL cells assessed as combination index for 50% activity in presence of 3-cyclopropyl-1-(3-{5-[(morpholin-4-yl)methyl]-1H-1,3-benzodiazol-2-yl}-1H-pyrazol-4-yl)urea; type: functional, Homo sapiens
HEL [19] = assay: Synergistic cytotoxicity against HEL cells assessed as combination index for 50% activity in presence of decernotinib; type: functional, Homo sapiens
HEL [20] = assay: Synergistic cytotoxicity against HEL cells assessed as combination index for 50% activity in presence of tofacitinib; type: functional, Homo sapiens
HEL [21] = assay: Synergistic cytotoxicity against HEL cells assessed as combination index for 50% activity in presence of ruxolitinib; type: functional, Homo sapiens
HEL [22] = assay: Synergistic cytotoxicity against HEL cells assessed as combination index for 75% activity in presence of 3-cyclopropyl-1-(3-{5-[(morpholin-4-yl)methyl]-1H-1,3-benzodiazol-2-yl}-1H-pyrazol-4-yl)urea; type: functional, Homo sapiens
HEL [23] = assay: Synergistic cytotoxicity against HEL cells assessed as combination index for 75% activity in presence of decernotinib; type: functional, Homo sapiens
HEL [24] = assay: Synergistic cytotoxicity against HEL cells assessed as combination index for 75% activity in presence of tofacitinib; type: functional, Homo sapiens
HEL [25] = assay: Synergistic cytotoxicity against HEL cells assessed as combination index for 75% activity in presence of ruxolitinib; type: functional, Homo sapiens
HEL [26] = assay: Synergistic cytotoxicity against HEL cells assessed as combination index for 95% activity in presence of 3-cyclopropyl-1-(3-{5-[(morpholin-4-yl)methyl]-1H-1,3-benzodiazol-2-yl}-1H-pyrazol-4-yl)urea; type: functional, Homo sapiens
HEL [27] = assay: Synergistic cytotoxicity against HEL cells assessed as combination index for 95% activity in presence of decernotinib; type: functional, Homo sapiens
HEL [28] = assay: Synergistic cytotoxicity against HEL cells assessed as combination index for 95% activity in presence of tofacitinib; type: functional, Homo sapiens
HEL [29] = assay: Synergistic cytotoxicity against HEL cells assessed as combination index for 95% activity in presence of ruxolitinib; type: functional, Homo sapiens
HEL [30] = assay: Cytotoxicity against HEL cells assessed as inhibition of cell growth at 100 uM relative to control; type: functional; conditions: Homo sapiens
HEL [31] = assay: Cytotoxicity against HEL cells assessed as inhibition of cell growth at 50 uM relative to control; type: functional; conditions: Homo sapiens
HEL [32] = assay: Cytotoxicity against HEL cells assessed as inhibition of cell growth at 25 uM relative to control; type: functional; conditions: Homo sapiens
HEL [33] = assay: Cytotoxicity against HEL cells assessed as inhibition of cell growth at 5 uM relative to control; type: functional; conditions: Homo sapiens
HEL [34] = assay: Cytotoxicity against HEL cells assessed as inhibition of cell growth at 1 uM relative to control; type: functional; conditions: Homo sapiens
HEL [35] = assay: Cytotoxicity against HEL cells assessed as inhibition of cell growth at 0.2 uM relative to control; type: functional; conditions: Homo sapiens
HEL [36] = assay: Cytotoxicity against HEL cells assessed as inhibition of cell growth at 0.04 uM relative to control; type: functional; conditions: Homo sapiens
HEL [37] = assay: Cytotoxicity against HEL cells assessed as inhibition of cell growth at 0.008 uM relative to control; type: functional; conditions: Homo sapiens
HEL [38] = assay: Cytotoxicity against HEL cells assessed as inhibition of cell growth at 0.0016 uM relative to control; type: functional; conditions: Homo sapiens

Compound: Cc1cnc(Nc2ccc(N3CCNCC3)cc2)nc1Nc1cccc(S(=O)(=O)NC(C)(C)C)c1
- IC50 [1]: 960 nM
- IC50 [2]: 1760 nM
- IC50 (HEL [3]): 2180 nM
- IC50 (HEL [4]): 1410 nM
- IC50 (HEL [5]): 1340 nM
- inhibition in vivo at 32.5 mg/kg (HEL [6]): 62.3%
- inhibition in vivo at 32.5 mg/kg (HEL [7]): 91.2%
- Activity (HEL [8]): Active
- IC50 (BaF3): 276 nM
- IC50 (HEL [9]): 1160 nM
- IC50 (HEL [10]): 550 nM
- IC50 (HEL [11]): 3070 nM
- IC50 (HEL [12]): 1530 nM
- IC50 (HEL [13]): 2450 nM
- CI25 (HEL [14]): 0.683
- CI25 (HEL [15]): 2.597
- CI25 (HEL [16]): 2.161
- CI25 (HEL [17]): 2.447
- CI50 (HEL [18]): 0.809
- CI50 (HEL [19]): 2.226
- CI50 (HEL [20]): 1.636
- CI50 (HEL [21]): 2.528
- CI75 (HEL [22]): 0.972
- CI75 (HEL [23]): 1.947
- CI75 (HEL [24]): 1.243
- CI75 (HEL [25]): 2.613
- CI95 (HEL [26]): 1.366
- CI95 (HEL [27]): 1.628
- CI95 (HEL [28]): 0.948
- CI95 (HEL [29]): 2.769
- inhibition at 100 µM (HEL [30]): 95.6%
- inhibition at 50 µM (HEL [31]): 94.5%
- inhibition at 25 µM (HEL [32]): 95%
- inhibition at 5 µM (HEL [33]): 70.9%
- inhibition at 1 µM (HEL [34]): 40.3%
- inhibition at 0.2 µM (HEL [35]): 16.5%
- inhibition at 0.04 µM (HEL [36]): 14.2%
- inhibition at 0.008 µM (HEL [37]): -2.98%
- inhibition at 0.0016 µM (HEL [38]): 3.19%
